Molecular target: T1, human GPR40 (Homo sapiens, UniProt O14842)
T1 construct: expressed in transfected cells
Test: Human GPR40 agonist activity with increase in intracellular Ca2+ concentration as an index
Format: cell-based
Details: test compound at final concentration 1 μM; CHO(dhfr−) cells stably expressing human GPR40; FLIPR Ca2+ fluorescence; 100% = 10 μM compound of WO 2015/020184 Example 153, 0% = DMSO
Protocol: Evaluation of Human GPR40 Agonist Activity with Increase in Intracellular Ca^2+ Concentration as an Index
CHO(dhfr−) cells that stably expressed human GPR40 were suspended in MEMα (Wako Pure Chemical Industries, Ltd.) containing 10% dialyzed serum (Thermo Fisher Scientific), 10 mM HEPES (Thermo Fisher Scientific), 100 U/mL penicillin, 100 μg/mL streptomycin (Wako Pure Chemical Industries, Ltd.), and plated on a 384 well black/clear cell culture plate at 10,000 cells/well. After culture overnight in a CO2 incubator at 37° C., the culture supernatant was removed, and loading buffer [Ca^2+ probe attached to Calcium Kit II-iCellux (DOJINDO) was dissolved in assay buffer (20 mM HEPES, 0.1% fatty acid-free BSA (Wako Pure Chemical Industries, Ltd.), 2.5 mM probenecid (DOJINDO)-containing HESS (Thermo Fisher Scientific))] was added at 30 μL/well. After leaving for 1 hr at room temperature under light shielding, assay buffer containing the test compound at a final concentration of 1 μM was added at 10 μL/well in fluorescence plate reader FLIPR Tetra (Molecular Devices), and the fluorescence amount was successively measured. Human GPR40 agonist activity was calculated using an increase in the intracellular Ca^2+ concentration as an index, wherein the activity of 10 μM of the compound of WO 2015/020184 (Example 153: 3-cyclopropyl-3-(2-((1-(2-((2-fluoro-2-methylpropyl)(4-methylpyridin-2-yl)carbamoyl)-5-methoxyphenyl)piperidin-4-yl)methoxy)pyridin-4-yl)propanoic acid) was 100%, and the activity when DMSO was added instead of the test compound was 0%.

T1 sequence (O14842 whole entry): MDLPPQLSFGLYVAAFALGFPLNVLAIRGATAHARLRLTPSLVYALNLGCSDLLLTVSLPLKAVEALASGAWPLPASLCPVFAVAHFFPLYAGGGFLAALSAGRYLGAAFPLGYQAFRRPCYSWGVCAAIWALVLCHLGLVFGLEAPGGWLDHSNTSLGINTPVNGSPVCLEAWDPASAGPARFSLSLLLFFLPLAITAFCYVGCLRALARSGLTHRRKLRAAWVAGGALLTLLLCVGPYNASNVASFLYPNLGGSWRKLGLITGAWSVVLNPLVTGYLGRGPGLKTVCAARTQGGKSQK

SMILES	activity (human GPR40 agonist activity) [%]
COc1ccc(C2CCN(CC(F)(F)F)CC2)c(O[C@H]2CC[C@H](Oc3cc(C(CC(=O)O)C4CC4)ccn3)CC2)c1 (stereo partly drawn) [Example 1, 3-cyclopropyl-3-(2-((trans-4-(5-methoxy-2-(1-(2,2,2-trifluoroethyl)piperidin-4-yl)phenoxy)cyclohexyl)oxy)pyridin-4-yl)propanoic acid]	86
COc1ccc(-c2cnc(OCC(F)(F)F)nc2)c(O[C@H]2CC[C@H](Oc3cc(C(CC(=O)O)C4CC4)ccn3)CC2)c1 (stereo partly drawn) [Example 3, 3-cyclopropyl-3-(2-((trans-4-(5-methoxy-2-(2-(2,2,2-trifluoroethoxy)pyrimidin-5-yl)phenoxy)cyclohexyl)oxy)pyridin-4-yl)propanoic acid]	84
COc1cc(N2CCC(COc3cc([C@@H](CC(=O)O)C4CC4)ccn3)CC2)c(C2CCN(CC(F)(F)F)CC2)cn1 [Example 4, (3S)-3-cyclopropyl-3-(2-((1-(2-methoxy-5-(1-(2,2,2-trifluoroethyl)piperidin-4-yl)pyridin-4-yl)piperidin-4-yl)methoxy)pyridin-4-yl)propanoic acid]	110
COc1cc(N2CCC(COc3cc([C@@H](CC(=O)O)C4CC4)ccn3)CC2)c(NCC(F)(F)C(F)(F)F)cn1 [Example 6, (3S)-3-cyclopropyl-3-(2-((1-(2-methoxy-5-((2,2,3,3,3-pentafluoropropyl)amino)pyridin-4-yl)piperidin-4-yl)methoxy)pyridin-4-yl)propanoic acid]	106
COc1ccc(-c2ccc(OC)nc2)c(O[C@H]2CC[C@H](Oc3cc(C(CC(=O)O)C4CC4)ccn3)CC2)c1 (stereo partly drawn) [Example 7, 3-cyclopropyl-3-(2-((trans-4-(5-methoxy-2-(6-methoxypyridin-3-yl)phenoxy)cyclohexyl)oxy)pyridin-4-yl)propanoic acid]	80
